In the assay the target is T1, human glucagon receptor (Homo sapiens, UniProt P47871).
T1 construct: expressed in transfected cells; cell membranes used
As to the kind of experiment: Glucagon Receptor Binding Assay (125I-glucagon, SPA, CHO cell membranes). As to conditions: for IC50: inhibition of 125I-glucagon binding to membranes of CHO cells expressing cloned human glucagon receptor, value for the most active stereoisomer prepared; for relative potency as glucagon receptor antagonist among the stereoisomers prepared: comparison of stereoisomers of the same example, assay not stated. As for the experimental part: A stable CHO (Chinese hamster ovary) cell line expressing cloned human glucagon receptor was maintained as described (Chicchi, et. al. J Biol Chem 272, 7765-9(1997); Cascieri, et. al. J Biol Chem 274, 8694-7(1999)). To determine antagonistic binding affinity of compounds, 0.001-0.003 mg of cell membranes from these cells were pre-incubated with 0.100 mg WGA-coated PVT SPA beads (Amersham) for 20 minutes at room temperature in […] of a buffer containing 50 mM Tris-HCl (pH 7.5), 5 mM MgCl2, 2 mM EDTA, 0.1% BSA and 3% glycerol in Costar 384 well plates with clear bottoms (#3706). Next, 25 μL of ^125I-Glucagon (New England Nuclear, MA) (1×10^−14 mol per well) and either 1 μL solutions of test compounds or 0.001 mM unlabeled glucagon or DMSO were added and mixed. After 4-12 hours incubation at room temperature, the radioactivity bound to the cell membranes was determined in a radioactive emission detection counter (Wallac-Microbeta). Data were analyzed using the Data Analyzer software program of Merck & Co., Inc. The IC50 values were calculated using non-linear regression analysis assuming single-site competition.

T1 sequence (P47871 26-477): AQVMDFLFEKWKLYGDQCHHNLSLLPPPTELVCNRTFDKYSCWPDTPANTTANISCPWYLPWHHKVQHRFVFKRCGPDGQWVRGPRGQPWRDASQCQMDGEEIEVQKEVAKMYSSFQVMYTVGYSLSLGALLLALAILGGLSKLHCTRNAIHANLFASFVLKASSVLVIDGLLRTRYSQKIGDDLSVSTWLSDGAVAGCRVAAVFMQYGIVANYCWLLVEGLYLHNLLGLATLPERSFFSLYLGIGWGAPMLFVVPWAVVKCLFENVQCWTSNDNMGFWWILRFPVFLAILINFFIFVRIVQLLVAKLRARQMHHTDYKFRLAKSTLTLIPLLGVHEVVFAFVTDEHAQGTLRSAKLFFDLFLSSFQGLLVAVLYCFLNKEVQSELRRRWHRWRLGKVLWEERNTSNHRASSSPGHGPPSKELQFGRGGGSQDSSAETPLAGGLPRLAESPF

Consider `CCCC(c1ccc(C(=O)NCCC(=O)O)cc1)C(c1ccc(Cl)cc1)c1n[nH]c2c(F)cc(-c3cccc(F)c3)cc12` (racemic) [Example 24], for which the IC50 – broadly, the concentration needed to halve the response being measured – is 1.7 nM.

For the molecule `CCCC(c1ccc(C(=O)NCCC(=O)O)cc1)C(c1ccc(Cl)cc1)c1n[nH]c2c(C)cc(Cl)cc12` (single isomer, unassigned) [Example 1], the “relative potency as glucagon receptor antagonist among the stereoisomers prepared” value (from here on “relative potency”) is reported as “most potent glucagon antagonist of the four stereoisomeric compounds” and the IC50 came to 0.6 nM.

On to `CCCC(c1ccc(C(=O)NCCC(=O)O)cc1)C(c1ccc(Cl)cc1)c1nn(C)c2c(Cl)cc(C(F)(F)F)cc12` (single isomer, unassigned) [Example 2, N-(4-{1-[[7-Chloro-1-Methyl-5-(Trifluoromethyl)-1H-Indazol-3-Yl](4-Chlorophenyl)Methyl]Butyl}Benzoyl)-β-Alanine], for which the IC50 was 0.7 nM.

As to `CCCC(c1ccc(C(=O)NCCC(=O)O)cc1)C(c1ccc(Cl)cc1)c1c2cc(C(F)(F)F)cc(Cl)c2nn1-c1ccccc1` (single isomer, unassigned) [Example 3, N-[4-(1-{(4-Chlorophenyl)[7-Chloro-2-Phenyl-5-(Trifluoromethyl)-2H-Indazol-3-Yl]Methyl}Butyl)Benzoyl]-β-Alanine], the IC50 came out at 37 nM.

With `CCCC(c1ccc(C(=O)NCCC(=O)O)cc1)C(c1ccc(Cl)cc1)c1c2cc(C(F)(F)F)cc(Cl)c2nn1C` (single isomer, unassigned) [Example 4, N-[4-(1-{(4-Chlorophenyl)[7-Chloro-2-Methyl-5-(Trifluoromethyl)-2H-Indazol-3-Yl]Methyl}Butyl)Benzoyl]-β-Alanine], the “relative potency” value is recorded as “most potent glucagon receptor antagonist of the four stereoisomeric compounds” and the IC50 was 2.6 nM.

As to `CCCC(c1ccc(C(=O)NCCC(=O)O)cc1)C(c1ccc(Cl)cc1)c1n[nH]c2ccc(C(F)(F)F)cc12` (single isomer, unassigned) [Example 5, N-[4-(1-{(4-CHLOROPHENYL)[5-(TRIFLUOROMETHYL)-1H- INDAZOL-3-YL]METHYL}BUTYL)BENZOYL]-β-ALANINE], the IC50 is 0.8 nM.

In the case of `CCCC(c1ccc(C(=O)NCCC(=O)O)cc1)C(c1ccc(Cl)cc1)c1n[nH]c2c(Cl)cc(C(F)(F)F)cc12` (single isomer, unassigned) [Example 6, N-[4-(1-{(4-CHLOROPHENYL)[7-CHLORO-5-(TRIFLUOROMETHYL)-1H-INDAZOL- 3-YL]METHYL}BUTYL)BENZOYL]-β-ALANINE], the IC50 was 0.2 nM.

With `CCCC(c1ccc(C(=O)NCCC(=O)O)cc1)C(c1ccc(Cl)cc1)c1n[nH]c2c(Cl)cc(Cl)cc12` (single isomer, unassigned) [Example 8, N-[4-(1-{(4-CHLOROPHENYL)[5,7-DICHLORO-1H-INDAZOL-3- YL]METHYL}BUTYL)BENZOYL]-β-ALANINE], the IC50 was determined as 0.4 nM.

As for `CCCC(c1ccc(C(=O)NCCC(=O)O)cc1)C(c1ccc(Cl)cc1)c1nn(C)c2ccc(C(F)(F)F)cc12` (single isomer, unassigned) [Example 9, N-[4-(1-{(4-CHLOROPHENYL)[1-METHYL-5-(TRIFLUOROMETHYL)-1H- INDAZOL-3-YL]METHYL}BUTYL)BENZOYL]-β-ALANINE], the IC50 came out at 1 nM.

The molecule `CCCC(c1ccc(C(=O)NCCC(=O)O)cc1)C(c1ccc(Cl)cc1)c1nn(C)c2c(F)cc(F)cc12` (single isomer, unassigned) [Example 10, N-[4-(1-{(4-CHLOROPHENYL)[1-METHYL-5,7-DIFLUORO-1H- INDAZOL-3-YL]METHYL}BUTYL)BENZOYL]-β-ALANINE] registered a 50% inhibitory concentration (IC50) of 4 nM.

`CCCC(c1ccc(C(=O)NCCC(=O)O)cc1)C(c1ccc(Cl)cc1)c1nn(C)c2c(C)cc(Cl)cc12` (single isomer, unassigned) [Example 11, N-[4-(1-{(4-CHLOROPHENYL)[1,7-DIMETHYL-5-CHLORO-1H- INDAZOL-3-YL]METHYL}BUTYL)BENZOYL]-β-ALANINE] returned a half-inhibitory concentration (IC50) of 0.7 nM.

The molecule `CCCC(c1ccc(C(=O)NCCC(=O)O)cc1)C(c1ccc(Cl)cc1)c1nn(C)c2c(Cl)cc(Cl)cc12` (single isomer, unassigned) [Example 12, N-[4-(1-{(4-CHLOROPHENYL)[1-METHYL-5,7-DICHLORO-1H-INDAZOL-3- YL]METHYL}BUTYL)BENZOYL]-β-ALANINE] yielded an IC50 of 0.9 nM.

`CCCC(c1ccc(C(=O)NCCC(=O)O)cc1)C(c1ccc(Cl)cc1)c1c2cc(C(F)(F)F)ccc2nn1C` (single isomer, unassigned) [Example 13, N-[4-(1-{(4-CHLOROPHENYL)[2-METHYL-5- (TRIFLUOROMETHYL)-2H-INDAZOL-3- YL]METHYL}BUTYL)BENZOYL]-β-ALANINE] came in with a half-maximal inhibitory concentration (IC50) of 3.3 nM.

`CCCC(c1ccc(C(=O)NCCC(=O)O)cc1)C(c1ccc(Cl)cc1)c1c2cc(C(F)(F)F)cc(Cl)c2nn1CC(F)(F)F` (single isomer, unassigned) [Example 17, N-[4-(1-{(4-CHLOROPHENYL)[7-CHLORO-2-(2,2,2- TRIFLUOROETHYL)-5-(TRIFLUOROMETHYL)-2H-INDAZOL-3- YL]METHYL}BUTYL)BENZOYL]-β-ALANINE] displayed an IC50 of 3.9 nM.

`CCCC(c1ccc(C(=O)NCCC(=O)O)cc1)C(c1ccc(Cl)cc1)c1c2cc(Cl)cc(Cl)c2nn1C` (single isomer, unassigned) [Example 19, N-[4-(1-{(4-CHLOROPHENYL)[2-METHYL-5,7-DICHLORO-2H-INDAZOL-3- YL]METHYL}BUTYL)BENZOYL]-β-ALANINE] had an IC50 of 2 nM.

For `CCCC(c1ccc(C(=O)NCCC(=O)O)cc1)C(c1ccc(Cl)cc1)c1n[nH]c2c(F)cc(-c3ccc(C)cc3)cc12` (single isomer, unassigned) [Example 21, N-[4-(1-{(4-Chlorophenyl)[7-Fluoro-5-(4-Methylphenyl)-1H-Indazol-3-Yl]Methyl}Butyl)Benzoyl]-β-Alanine], the “relative potency” value is recorded as “the more potent glucagon receptor antagonist” and the IC50 was 2.6 nM.

For the molecule `CCCC(c1ccc(C(=O)NCCC(=O)O)cc1)C(c1ccc(Cl)cc1)c1n[nH]c2c(F)cc(C#N)cc12` (single isomer, unassigned) [Example 36, N-(4-{1-[(4-Chlorophenyl)(5-Cyano-7-Fluoro-1H-Indazol-3-Yl)Methyl]Butyl}Benzoyl)-β-Alanine], the “relative potency” value is “the more potent glucagon receptor antagonist” and the IC50 came to 4.3 nM.

Molecule `CCC[C@H](c1ccc(C(=O)NCCC(=O)O)cc1)[C@H](c1ccc(Cl)cc1)c1n[nH]c2c(F)cc(C)cc12` (single isomer, unassigned) [Example 37] came in with a half-inhibitory concentration (IC50) of 0.8 nM.
